Measurements taken from ChEMBL document CHEMBL1146534, “Synthetic method and biological activities of cis-fused alpha-methylene gamma-lactones” (2003).

Tests used:
Type in all cases: functional
Pythium aphanidermatum = assay: Prevention of Pythium aphanidermatum-mediated damping off of cucumber disease at 500 ppm/20 mL per pot after 14 days at 25 degC under green house by Pot test
Venturia inaequalis [1] = assay: Prevention of Venturia inaequalis-mediated scab of apple disease at 500 ppm by Pot test
P388 [2] = assay: Cytotoxicity against mouse P388 cells assessed as cell growth inhibitory ratio at 0.1 ug/mL after 48 hrs relative to control; parameters: scale not given: the % may be the effect or the level left
Blumeria graminis = assay: Prevention of Erysiphe graminis-mediated powdery mildew of wheat disease at 500 ppm after 10 days at 22 deg C under fluorescent lamp by Pot test
P388 [3] = assay: Cytotoxicity against mouse P388 cells assessed as cell growth inhibitory ratio at 1 ug/mL after 48 hrs relative to control; parameters: scale not given: the % may be the effect or the level left
P388 [4] = assay: Cytotoxicity against mouse P388 cells assessed as cell growth inhibitory ratio at 10 ug/mL after 48 hrs relative to control; parameters: scale not given: the % may be the effect or the level left
Rhizoctonia solani = assay: Prevention of Rhizoctonia solani-mediated sheath blight of rice disease at 500 ppm after 4 days at 28 degC by Pot test
Venturia inaequalis [5] = assay: Antimicrobial activity against Venturia inaequalis at 100 ppm after 11 days at 18 degC
Rhynchosporium secalis [6] = assay: Antimicrobial activity against Rhynchosporium secalis at 200 ppm after 11 days at 18 degC
Mycosphaerella [7] = assay: Antimicrobial activity against Mycosphaerella melonis at 50 ppm after 4 days at 28 degC
Venturia inaequalis [8] = assay: Antimicrobial activity against Venturia inaequalis at 200 ppm after 11 days at 18 degC
Pyrenophora graminea [9] = assay: Antimicrobial activity against Pyrenophora graminea at 200 ppm after 4 days at 28 degC
Pyrenophora graminea [10] = assay: Antimicrobial activity against Pyrenophora graminea at 50 ppm after 4 days at 28 degC
Mycosphaerella [11] = assay: Antimicrobial activity against Mycosphaerella melonis at 100 ppm after 4 days at 28 degC
Alternaria [12] = assay: Antimicrobial activity against Alternaria kikuchiana at 200 ppm after 4 days at 28 degC
Alternaria [13] = assay: Antimicrobial activity against Alternaria kikuchiana at 50 ppm after 4 days at 28 degC
Rhynchosporium secalis [14] = assay: Antimicrobial activity against Rhynchosporium secalis at 100 ppm after 11 days at 18 degC
Mycosphaerella [15] = assay: Antimicrobial activity against Mycosphaerella melonis at 200 ppm after 4 days at 28 degC
Pyrenophora graminea [16] = assay: Antimicrobial activity against Pyrenophora graminea at 100 ppm after 4 days at 28 degC
Rhynchosporium secalis [17] = assay: Antimicrobial activity against Rhynchosporium secalis at 50 ppm after 11 days at 18 degC
Alternaria [18] = assay: Antimicrobial activity against Alternaria kikuchiana at 100 ppm after 4 days at 28 degC
Venturia inaequalis [19] = assay: Antimicrobial activity against Venturia inaequalis at 50 ppm after 11 days at 18 degC

SMILES | Activity (Pythium aphanidermatum) | Activity (Venturia inaequalis [1]) | Activity (P388 [2]) | Activity (Blumeria graminis) | Activity (P388 [3]) | Activity (P388 [4]) | Activity (Rhizoctonia solani) | other results
C=C1C(=O)O[C@H]2CCCCC[C@@H]12 | 0% | 90% | 9% | 0% | 76% | 102% | 0% | –
C=C1C(=O)O[C@H]2CC[C@H](C)CC[C@@H]12 | 100% | 0% | 15% | 0% | 50% | 102% | 0% | –
C=C1C(=O)O[C@H]2CC[C@@H](C)CC[C@@H]12 | 70% | 0% | 38% | 0% | 69% | 101% | 0% | –
C=C1C(=O)O[C@H]2[C@@H](O)CCCC[C@@H]12 | 100% | 0% | 11% | 50% | 40% | 100% | 50% | Activity (Venturia inaequalis [5]): 50%; Activity (Rhynchosporium secalis [6]): 100%; Activity (Mycosphaerella [7]): 70%; Activity (Venturia inaequalis [8]): 0%; Activity (Pyrenophora graminea [9]): 50%; Activity (Pyrenophora graminea [10]): 0%; Activity (Mycosphaerella [11]): 80%; Activity (Alternaria [12]): 40%; Activity (Alternaria [13]): 0%; Activity (Rhynchosporium secalis [14]): 60%; Activity (Mycosphaerella [15]): 100%; Activity (Pyrenophora graminea [16]): 0%; Activity (Rhynchosporium secalis [17]): 30%; Activity (Alternaria [18]): 20%
CC1=C2CCCCC[C@@H]2OC1=O | – | – | 7% | – | 4% | 43% | – | –
O=C1C[C@@H]2CCCC[C@H](O)[C@@H]2O1 | 0% | 0% | – | 90% | – | – | 0% | Activity (Venturia inaequalis [5]): 0%; Activity (Rhynchosporium secalis [6]): 0%; Activity (Mycosphaerella [7]): 0%; Activity (Venturia inaequalis [8]): 0%; Activity (Pyrenophora graminea [9]): 0%; Activity (Pyrenophora graminea [10]): 0%; Activity (Mycosphaerella [11]): 0%; Activity (Alternaria [12]): 0%; Activity (Alternaria [13]): 0%; Activity (Venturia inaequalis [19]): 0%; Activity (Rhynchosporium secalis [14]): 0%; Activity (Mycosphaerella [15]): 0%; Activity (Pyrenophora graminea [16]): 0%; Activity (Rhynchosporium secalis [17]): 0%; Activity (Alternaria [18]): 0%
C=C1C(=O)O[C@H]2[C@@H](OC(C)=O)CCCC[C@@H]12 | 100% | 0% | 9% | 30% | 21% | 102% | 30% | –
